Assay results published in patent US7150974B1, “Parathyroid hormone receptor binding method” (The General Hospital Corporation, priority 1991, dated 2006).

Experiments:
[1] = biological target: T1, rat bone PTH/PTHrP receptor (Rattus norvegicus, UniProt P25961, E586G); assay: cAMP accumulation, COS cells expressing R15B; type: cell-based
T1 construct: expressed in transfected cells; host or cells: COS / COS-7 cells, transient, plasmid R15B (pcDNA I)
T1 sequence (P25961 27-591 E586G): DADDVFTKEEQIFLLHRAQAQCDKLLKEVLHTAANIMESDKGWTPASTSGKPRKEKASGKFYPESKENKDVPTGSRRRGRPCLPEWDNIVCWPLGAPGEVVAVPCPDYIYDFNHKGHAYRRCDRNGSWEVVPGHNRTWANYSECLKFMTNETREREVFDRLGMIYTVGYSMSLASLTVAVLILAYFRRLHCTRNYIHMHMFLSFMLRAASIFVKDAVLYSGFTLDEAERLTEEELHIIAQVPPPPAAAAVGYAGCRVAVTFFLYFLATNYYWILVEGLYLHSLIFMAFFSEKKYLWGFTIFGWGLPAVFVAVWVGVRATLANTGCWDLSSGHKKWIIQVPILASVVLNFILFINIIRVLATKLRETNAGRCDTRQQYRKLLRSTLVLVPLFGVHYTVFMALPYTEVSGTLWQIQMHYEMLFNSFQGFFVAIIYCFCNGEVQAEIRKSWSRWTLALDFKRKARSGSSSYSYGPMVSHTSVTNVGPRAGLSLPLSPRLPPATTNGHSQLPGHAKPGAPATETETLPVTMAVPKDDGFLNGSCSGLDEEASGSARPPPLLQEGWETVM
Description: Intracellular cAMP accumulation was measured as described previously (Abou-Samra et al., J. Biol. Chem. 262:1129, 1986). Cells in 24-well plates were rinsed with culture medium containing 0.1% BSA and 2 mM IBMX. […] The supernatant was removed and the cells immediately frozen by placing the whole plate in dry ice powder. Intracellular cAMP was extracted by thawing the cells in 1 ml of 50 mM HCl and analyzed by a specific radioimmunoassay using an anti-cAMP antibody (e.g., Sigma, St. Louis, Mo.). A cAMP analog (2′-O-monosuccinyl-adenosine 3′:5′-cyclic monophosphate tyrosyl methyl ester, obtained from Sigma) which was used a tracer for cAMP was iodinated by the chloramine T method. Free iodine was removed by adsorbing the iodinated cAMP analog onto a C18 Sep-pak cartridge (Waters, Milford, Mass.). After washing with dH2O, the iodinated cAMP analog was eluted from the Sep-pak Cartridge with 40% acetonitrille (ACN) and 0.1% trifluoroacetic acid (TFA). The iodinated cAMP analog was lyophilized, reconstituted in 1 ml 0.1% TFA, and injected into a C18 reverse phase HPLC column (Waters). The column was equilibrated with 10% ACN in 0.1% TFA, and eluted with gradient of 10-30% ACN in 0.1% TFA. This allows separation of the mono-iodinated cAMP analog from the non-iodinated cAMP analog. […] The standard used for the assay, adenosine 3′:5′-cyclic monophosphate, was purchased from Sigma. […]

[2] = biological target: T2, opossum kidney PTH/PTHrp receptor clone, OK-O (Didelphis virginiana, UniProt P25107, I132F/S86P); assay: Intracellular free calcium, COS cells expressing OK-O; type: cell-based; details: FIG. 12
T2 construct: expressed in transfected cells; host or cells: COS cells, transient, plasmid OK-O (pcDNA I)
T2 sequence (P25107 27-585 S86P/I132F): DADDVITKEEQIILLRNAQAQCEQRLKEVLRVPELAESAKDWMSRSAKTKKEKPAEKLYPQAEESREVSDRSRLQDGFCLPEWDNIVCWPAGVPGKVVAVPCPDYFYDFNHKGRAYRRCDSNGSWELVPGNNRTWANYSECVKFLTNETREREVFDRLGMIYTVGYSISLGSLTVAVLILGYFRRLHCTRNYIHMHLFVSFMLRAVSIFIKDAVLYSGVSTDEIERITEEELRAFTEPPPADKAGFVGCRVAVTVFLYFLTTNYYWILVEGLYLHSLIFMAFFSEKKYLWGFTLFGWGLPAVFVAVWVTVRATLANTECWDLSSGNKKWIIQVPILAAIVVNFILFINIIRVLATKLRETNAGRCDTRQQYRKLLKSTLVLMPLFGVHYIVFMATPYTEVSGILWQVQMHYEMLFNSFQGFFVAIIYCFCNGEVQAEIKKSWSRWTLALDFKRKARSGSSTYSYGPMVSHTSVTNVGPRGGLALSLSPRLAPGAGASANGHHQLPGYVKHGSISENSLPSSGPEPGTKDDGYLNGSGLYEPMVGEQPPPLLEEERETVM
Description: Details of the methodology are:
Coverslips plated with COS cells were incubated in Fura-2 AM loading buffer containing, in mM: HEPES (N-[2-Hydroxyethyl]piperazine-N′-[2-ethanesulfonic acid]), 20; CaCl2, 1; KCl 5; NaCl, 145; MgSO4, 0.5; NaHCO3, 25; K2HPO4, 1.4; glucose, 10; and Fura-2 AM 91-(2-5′-carboxyoxazol-2′-yl)-6-aminobenzofuran-5oxy-(2′-amino-5′-methylphenoxy)ethane-N,N,N′,N′-tetraaecetic acid acetomethoxy ester), 0.5; at 37° C. at pH7.4, aerated with 95% air and 5% CO2 for 45 minutes. Cells loaded with Fura-2 AM were then washed with a modified Krebs-Heinseleit (KH) buffer containing, in mM: HEPES, 20; CaCl2, 1; KCl, 5; NaCl, 145; MgSO4, 0.5; Na2HPO4, 1; glucose, 5; pH7.4. To check that cleavage of the ester occurred, the excitation spectra after different times of Fura-2 AM incubation were measured.
To measure fluorescence of individual cells, the cover slips were placed in a microscope tissue chamber (Biophysica Technologies, Inc., MD). The chamber consisted of a shallow, sloped compartment made of Teflon with a silicone rubber seal. The cover slips served as the bottom of the chamber. A heater/cooler ring was encased in the silicone rubber which sealed the coverslip in place.

[Nle^8,18, Tyr^34]bPTH(1-34)amide
cAMP accumulation ([1]; COS cells expressing R15B, FIG. 16): increase cAMP accumulation
cAMP accumulation, PTH(1-34) compared with PTHrP(1-36) ([1]; COS-7 cells expressing rat receptor): to the same extent
increase in intracellular free calcium [2]: increase
